Assay results as given in the SangsterLogP compilation.

Question: With c1ccc2c(c1)Sc1ccccc1S2 as the molecule, how does the logP read?
Answer: 4.47

Question: Which logP does the source give for c1ccc2c(c1)Oc1ccccc1O2 here?
Answer: 4.19

Question: With c1ccc(-c2ccccn2)nc1 as the molecule, how does the logP read?
Answer: 1.67

Question: With c1ccc2c(c1)COC2 as the molecule, how does the logP read?
Answer: 1.63

Question: With c1csc(-c2cccs2)c1 as the molecule, how does the logP read?
Answer: 3.75

Question: With c1ccc2sccc2c1 as the molecule, how does the logP read?
Answer: 3.26

Question: With c1ccc2c(c1)Cc1ccccc1O2 as the molecule, how does the logP read?
Answer: 4.23

Question: For c1ccc2cc3c(cc2c1)sc1ccccc13, which logP is on record?
Answer: 5.07

Remark: another data set of the same source

Question: With c1ccc2c(c1)CCO2 as the molecule, how does the logP read?
Answer: 2.26

Question: With c1cc2ccc3cc4cccc5ccc6cc(c1)c2c3c6c54 as the molecule, how does the logP read?
Answer: 7.04

Question: With c1ccc2c(c1)c1cccc3ccc4cccc2c4c31 as the molecule, how does the logP read?
Answer: 6.44

Question: Which logP does the source give for c1cc2ccc3ccc4ccc5cccc6c(c1)c2c3c4c56 here?
Answer: 7.04

Question: For c1ccc2c(c1)ccc1cccnc12, which logP is on record?
Answer: 3.25

Question: Which logP does the source give for c1ccc2cc3c4ccccc4c4ccccc4c3cc2c1 here?
Answer: 7.11

Question: Which logP does the source give for c1ccc2c(c1)ccc1c2ccc2ccc3ccccc3c21 here?
Answer: 7.11

Question: For C1=Cc2ccc3c4c(ccc1c24)C=C3, which logP is on record?
Answer: 5.07

Question: Which logP does the source give for c1ccc2c(c1)c1ccccc1c1c3ccccc3c3ccccc3c21 here?
Answer: 8.39

Question: With c1ccc2occc2c1 as the molecule, how does the logP read?
Answer: 2.53

Question: With c1cnc2c(c1)ccc1ncccc12 as the molecule, how does the logP read?
Answer: 1.93

Question: With c1ccc2c(c1)ccc1ncccc12 as the molecule, how does the logP read?
Answer: 3.25

Question: For c1cnccn1, which logP is on record?
Answer: -0.05

Question: Which logP does the source give for c1ccc(-c2c3ccccc3c(-c3ccccc3)c3ccccc23)cc1 here?
Answer: 8.46

Question: Which logP does the source give for c1ccc(-c2cccc(-c3ccccn3)n2)nc1 here?
Answer: 1.96

Question: Which logP does the source give for c1ccc2c(c1)c1ccccc1c1ccccc21 here?
Answer: 5.84

Question: With c1ccc2cc3c(cc2c1)oc1ccccc13 as the molecule, how does the logP read?
Answer: 5.08

Question: For c1ccc2cc3cc4cc5ccccc5cc4cc3cc2c1, which logP is on record?
Answer: 7.11

Question: For c1ccc2c(c1)cc1ccc3cccc4c5ccccc5c2c1c34, which logP is on record?
Answer: 7.71

Question: With c1ccc2cc3c(ccc4c5ccccc5ccc34)cc2c1 as the molecule, how does the logP read?
Answer: 7.11

Question: For c1cnc2c(c1)ccc1cccnc12, which logP is on record?
Answer: 1.93

Question: Which logP does the source give for c1cc2c3c(c1)ccc1ccc4cccc-2c4c13 here?
Answer: 6.63

Question: Which logP does the source give for c1cc(-c2ccncc2)ccn1 here?
Answer: 1.33

Question: Which logP does the source give for c1ccc2c(c1)ccc1c2ccc2c3ccccc3ccc21 here?
Answer: 7.11

Question: With c1ccc(-c2cc3cccnc3c3ncccc23)cc1 as the molecule, how does the logP read?
Answer: 3

Question: For c1ccc(-c2cccc(-c3ccccc3)n2)cc1, which logP is on record?
Answer: 4.6

Question: Which logP does the source give for c1ccc2c(c1)ccc1c3ccc4ccccc4c3[nH]c21 here?
Answer: 5.89
